Values of other authors, collected in US7670620B2, “Topical composition for the treatment of psoriasis and related skin disorders” (Bioderm, Inc., priority 2000, dated 2010).

Tested on: fibroblasts
Settings: in vitro; Karzel and Domenjoz 1971

Structure (SMILES)	Secretion of mucopolysaccharides by fibroblasts
CC(=O)N[C@H]1C(O)O[C@H](CO)[C@H](O)[C@@H]1O (stereo partly drawn) [N-acetylgalactosamine]	also worked, but to a lesser degree
CC(=O)N[C@H]1C(O)O[C@H](CO)[C@@H](O)[C@@H]1O (stereo partly drawn) [N-acetylglucosamine]	also worked, but to a lesser degree
N[C@H]1C(O)O[C@H](CO)[C@@H](O)[C@@H]1O (stereo partly drawn) [glucosamine]	significantly increases secretion of mucopolysaccharides by fibroblasts
